Columns and labels:
[1] = buffer, pH 7.4
Description: Solubility (phosphate buffer, pH 7.4)

Sus scrofa = species on record: Sus scrofa; experiment: Concentration required for 50% inhibition of porcine kidney renin at 10e-7 nM concentration; type: functional
physchem [2] = conditions: phosphate buffer, pH 7.4, S
Description: Solubility (phosphate buffer, pH 7.4)

physchem [3] = conditions: S
[4] = Partition coefficient (logD) (octanol/citric acid-phosphate buffer)
Canis familiaris [5] = experiment: Change in mean blood pressure (MBP) in dog 2 after oral administration after a period of 60 min; type: functional, Canis lupus familiaris
Canis familiaris [6] = experiment: Change in mean blood pressure (MBP) in dog 2 after oral administration after a period of 120 min; type: functional, Canis lupus familiaris
Canis familiaris [7] = experiment: Change in mean blood pressure (MBP) in dog 1 after oral administration after a period of 15 min; type: functional, Canis lupus familiaris
Canis familiaris [8] = experiment: Change in mean blood pressure (MBP) in dog 1 after oral administration after a period of 240 min; type: functional, Canis lupus familiaris
Canis familiaris [9] = experiment: Change in mean blood pressure (MBP) in dog 1 after oral administration after a period of 75 min; type: functional, Canis lupus familiaris
Canis familiaris [10] = experiment: Change in mean blood pressure (MBP) in dog 3 after oral administration after a period of 150 min; type: functional, Canis lupus familiaris
Canis familiaris [11] = experiment: Change in mean blood pressure (MBP) in dog 2 after oral administration after a period of 180 min; type: functional, Canis lupus familiaris
Canis familiaris [12] = experiment: Change in mean blood pressure (MBP) in dog 2 after oral administration after a period of 150 min; type: functional, Canis lupus familiaris
Canis familiaris [13] = experiment: Change in mean blood pressure (MBP) in dog 3 after oral administration after a period of 30 min; type: functional, Canis lupus familiaris
Canis familiaris [14] = experiment: Change in mean blood pressure (MBP) in dog 1 after oral administration after a period of 150 min; type: functional, Canis lupus familiaris
Canis familiaris [15] = experiment: Change in mean blood pressure (MBP) in dog 3 after oral administration after a period of 60 min; type: functional, Canis lupus familiaris
Canis familiaris [16] = experiment: Change in mean blood pressure (MBP) in dog 2 after oral administration after a period of 30 min; type: functional, Canis lupus familiaris
Canis familiaris [17] = experiment: Change in mean blood pressure (MBP) in dog 3 after oral administration after a period of 240 min; type: functional, Canis lupus familiaris
Canis familiaris [18] = experiment: Change in mean blood pressure (MBP) in dog 3 after oral administration after a period of 300 min; type: functional, Canis lupus familiaris
Canis familiaris [19] = experiment: Change in mean blood pressure (MBP) in dog 1 after oral administration after a period of 180 min; type: functional, Canis lupus familiaris
Canis familiaris [20] = experiment: Change in mean blood pressure (MBP) in dog 1 after oral administration after a period of 30 min; type: functional, Canis lupus familiaris
Canis familiaris [21] = experiment: Change in mean blood pressure (MBP) in dog 1 after oral administration after a period of 90 min; type: functional, Canis lupus familiaris
Canis familiaris [22] = experiment: Change in mean blood pressure (MBP) in dog 1 after oral administration after a period of 120 min; type: functional, Canis lupus familiaris
Canis familiaris [23] = experiment: Change in mean blood pressure (MBP) in dog 2 after oral administration after a period of 300 min; type: functional, Canis lupus familiaris
Canis familiaris [24] = experiment: Change in mean blood pressure (MBP) in dog 2 after oral administration after a period of 45 min; type: functional, Canis lupus familiaris
Canis familiaris [25] = experiment: Change in mean blood pressure (MBP) in dog 3 after oral administration after a period of 180 min; type: functional, Canis lupus familiaris
Canis familiaris [26] = experiment: Change in mean blood pressure (MBP) in dog 3 after oral administration after a period of 75 min; type: functional, Canis lupus familiaris
Canis familiaris [27] = experiment: Change in mean blood pressure (MBP) in dog 2 after oral administration after a period of 75 min; type: functional, Canis lupus familiaris
Canis familiaris [28] = experiment: Change in mean blood pressure (MBP) in dog 1 after oral administration after a period of 45 min; type: functional, Canis lupus familiaris
Canis familiaris [29] = experiment: Change in mean blood pressure (MBP) in dog 2 after oral administration after a period of 90 min; type: functional, Canis lupus familiaris
Canis familiaris [30] = experiment: Change in mean blood pressure (MBP) in dog 3 after oral administration after a period of 15 min; type: functional, Canis lupus familiaris
Canis familiaris [31] = experiment: Change in mean blood pressure (MBP) in dog 3 after oral administration after a period of 120 min; type: functional, Canis lupus familiaris
Canis familiaris [32] = experiment: Change in mean blood pressure (MBP) in dog 3 after oral administration after a period of 45 min; type: functional, Canis lupus familiaris
Canis familiaris [33] = experiment: Change in mean blood pressure (MBP) in dog 1 after oral administration after a period of 300 min; type: functional, Canis lupus familiaris
Canis familiaris [34] = experiment: Change in mean blood pressure (MBP) in dog 1 after oral administration after a period of 10 min; type: functional, Canis lupus familiaris
Canis familiaris [35] = experiment: Change in mean blood pressure (MBP) in dog 3 after oral administration after a period of 90 min; type: functional, Canis lupus familiaris
Canis familiaris [36] = experiment: Change in mean blood pressure (MBP) in dog 2 after oral administration after a period of 240 min; type: functional, Canis lupus familiaris
Canis familiaris [37] = experiment: Change in mean blood pressure (MBP) in dog 1 after oral administration after a period of 60 min; type: functional, Canis lupus familiaris
Canis familiaris [38] = experiment: Change in mean blood pressure (MBP) in dog 2 after oral administration after a period of 15 min; type: functional, Canis lupus familiaris

**Q.** For `CC(C)CC(NC(=O)[C@H](Cc1c[nH]cn1)NC(=O)[C@H](Cc1ccccc1)NC(=O)OC(C)(C)C)C(O)CC(=O)N[C@@H](CC(C)C)C(=O)NCCC(N)C(=O)O` (stereo in doubt; 16), which S [1] is on record?
**A.** 6100 µM

**Q.** And the S?
**A.** 2300 µM

**Q.** What does the source list for `CC(C)CC(NC(=O)[C@H](Cc1c[nH]cn1)NC(=O)[C@H](Cc1ccccc1)NC(=O)OC(C)(C)C)C(O)CC(=O)N[C@@H](CC(C)C)C(=O)NCCS(=O)(=O)O` (stereo not given in full)?
**A.** Inhibition (Sus scrofa): 0%; solubility (physchem [2]): > 11 mM; solubility (physchem [3]): > 11 mM; logD [4]: 0.633

**Q.** What does the source list for `CC(C)C[C@H](NC(=O)CC(O)C(CC1CCCCC1)NC(=O)[C@H](Cc1c[nH]cn1)NC(=O)[C@H](Cc1ccccc1)NC(=O)OC(C)(C)C)C(=O)NCc1cccc(CN)c1` (stereo not given in full)?
**A.** MBP (Canis familiaris [5]): 0 mmHg; MBP (Canis familiaris [6]): -4 mmHg; MBP (Canis familiaris [7]): -18 mmHg; MBP (Canis familiaris [8]): 1 mmHg; MBP (Canis familiaris [9]): -7 mmHg; MBP (Canis familiaris [10]): -2 mmHg; MBP (Canis familiaris [11]): -2 mmHg; MBP (Canis familiaris [12]): -3 mmHg; MBP (Canis familiaris [13]): -6 mmHg; MBP (Canis familiaris [14]): -1 mmHg; MBP (Canis familiaris [15]): -5 mmHg; MBP (Canis familiaris [16]): -3 mmHg; MBP (Canis familiaris [17]): -3 mmHg; MBP (Canis familiaris [18]): -3 mmHg; MBP (Canis familiaris [19]): -13 mmHg; MBP (Canis familiaris [20]): -2 mmHg; MBP (Canis familiaris [21]): 1 mmHg; MBP (Canis familiaris [22]): -2 mmHg; MBP (Canis familiaris [23]): -1 mmHg; MBP (Canis familiaris [24]): -4 mmHg; MBP (Canis familiaris [25]): -5 mmHg; MBP (Canis familiaris [26]): -9 mmHg; MBP (Canis familiaris [27]): 1 mmHg; MBP (Canis familiaris [28]): -6 mmHg; MBP (Canis familiaris [29]): -5 mmHg; MBP (Canis familiaris [30]): 1 mmHg; MBP (Canis familiaris [31]): 1 mmHg; MBP (Canis familiaris [32]): -7 mmHg; MBP (Canis familiaris [33]): -10 mmHg; MBP (Canis familiaris [34]): -12 mmHg; MBP (Canis familiaris [35]): -2 mmHg; MBP (Canis familiaris [36]): -1 mmHg; MBP (Canis familiaris [37]): -4 mmHg; MBP (Canis familiaris [38]): -6 mmHg

Source: ChEMBL document CHEMBL1123973, “Renin inhibitors containing hydrophilic groups. Tetrapeptides with enhanced aqueous solubility and nanomolar potency” (J Med Chem, 1988)
